From US20020115177A1, “Regulation of human histone deacetylase” (priority 2000, published 2002)

Key:
[1] = test system: human histone deacetylase; assay: Expression of human histone deacetylase in oligonucleotide-treated HCT116 cells, by Western blotting; type: cell-based; details: oligonucleotide 10 μM once per day for seven days
Description: The cell line used for testing is the human colon cancer cell line HCT116. Cells are cultured in RPMI-1640 with 10-15% fetal calf serum at a concentration of 10,000 cells per milliliter in a volume of 0.5 ml and kept at 37° C. in a 95% air/5%CO2 atmosphere. Phosphorothioate oligoribonucleotides are synthesized on an Applied Biosystems Model 380B DNA synthesizer using phosphoroamidite chemistry. A sequence of 24 bases complementary to the nucleotides at position 1 to 24 of SEQ ID NO: 1 is used as the test oligonucleotide. As a control, another (random) sequence is used: 5'-[NT] ID NO:23). Following assembly and deprotection, oligonucleotides are ethanol-precipitated twice, dried, and suspended in phosphate buffered saline at the desired concentration. Purity of the oligonucleotides is tested by capillary gel electrophoresis and ion exchange HPLC. The purified oligonucleotides are added to the culture medium at a concentration of 10 μM once per day for seven days. […] This effect is not observed with the control oligonucleotide. After 3 to 7 days, the number of cells in the cultures is counted using an automatic cell counter. The number of cells in cultures treated with the test oligonucleotide (expressed as 100%) is compared with the number of cells in cultures treated with the control oligonucleotide.

[2] = test system: histone deacetylase (SEQ ID NO:2); assay: Histone deacetylase assay with nuclear extract of recombinant HEK293 cells (3H-acetylated chicken core histones); type: biochemical, human; details: TSA 1 μM; 30° C. for 90 minutes; released radioactivity
Description: Carboxy-terminal myc tagged histone deacetylase (SEQ ID NO:2) was cloned into a pcDNA3.1 vector and transfected into HEK293 cells. Recombinant clones were isolated and analyzed for histone deacetylase (HDAC) activity using the following procedure. Eight million recombinant or control cells were rinsed in 10 ml. of cold PBS, scraped, and spun at 500× g for 5 minutes. The cell pellet was rinsed with cold PBS and transferred to an Eppendorf tube. Nuclei were prepared by lysing the cells in 1 ml of Buffer A (10 mM HEPES, pH 7.5, 10 mM KCl, 1.5mM MgCl2, 0.5% NP40 and a cocktail of protease inhibitors without EDTA) on ice for 30 minutes. The lysate was spun at 1500× g for 5 minutes, then the supernatant was discarded. The pellet was washed in Buffer A without NP40. The nuclear pellet was sonicated three times for 5 seconds each on ice in 0.5 ml of 20 mM HEPES pH7.5, 1.5mM MgCl2, 10% glycerol and a cocktail of protease inhibitors without EDTA. The nuclear lysate was spun at 100,000× g for 30 min. Fifty μl aliquots of supernantant were stored at −80° C.
A HDAC assay was carried out in 100 μL of 25mM HEPES pH 7.5 buffer containing 0.1 mg/ml BSA, 1 mM MgCl2, 0.005% Triton X-100, ^3H-acetylated chicken core histones, and varying (0.5 to 4 μg) amounts of nuclear extracts at 30° C. for 90 minutes. […] Released radioactivity was counted as a measure of HDAC activity. […]

Compound	expression of human histone deacetylase as determined by Western blotting [1]	inhibition of HDAC activity of recombinant nuclear extract [2]
control oligonucleotide: Control (random) sequence: 5′-TCAACTGACTAGATGTACATGGAC-5′ (SEQ ID NO:23) (TCAACTGACTAGATGTACATGGAC; listed as DNA, chemistry not fully specified)	not observed	
CC(/C=C/C(=O)NO)=C\[C@@H](C)C(=O)c1ccc(N(C)C)cc1 [TSA, Trichostatin A]		inhibited
